Patent US6620423B2, “Use for pain management” (AstraZeneca AB, priority 1998, dated 2003)
Structures can show the parent of a compound that is named as a salt.

Assays:
[1] = system: patients with myofascial pain syndrome (MPS); conditions: bupivacaine 0.25%, lignocaine 1%, local injection, 107 patients; cited from earlier work
[2] = system: patients with orofacial muscle (myofascial) pain, masseter muscle tender points; experiment: VAS pain at maximal mouth opening after intramuscular tender point injection; assay type: in vivo, human
Method: Ropivacaine hydrochloride 7.5 mg/ml solution for injection was used (Naropin®, Astra AB, Sweden). Ropivacaine was administered as a single dose intra-muscular tender point (TP) injection. Injection by means of one needle insertion per tender point was preceded by aspiration before infiltrating the study drug over the entire tender area. A standard disposable syringe with a 0.4 mm diameter needle was used. Injection rate was about 1 ml/30 sec. Injections were made at one occassion at a visit to the clinic. Follow-up data were obtained at a study end visit to the clinic 1 week after the injection. Ten patients (5 men and 5 women) whose age varied from 19 years to 69 years (mean 42.9 years of age) were included in this test. The duration of complaints ranged from 1 month up to 10 years (mean 26.5 months). All patients were subjected to unilateral injections of ropivacaine into tender points of the masseter muscle. Three patients received 1 ml, 5 patients received 2 ml, 1 patient received 3 ml and 1 patient received 4 ml of the study drug. (i) Pain on maximal mouth opening The patient rated their pain on a 100 mm visual analogue scale (VAS). On the VAS, 0 represents “no pain” and 100 represents “worst pain imaginable”. The primary efficacy variable was VAS pain score at maximal mouth opening. The patient was asked to open the mouth as much as possible and then they rated the experienced pain.

[3] = system: patients with orofacial muscle (myofascial) pain, masseter muscle tender points; experiment: Frequency of pain episodes / freedom from muscular pain at follow-up; assay type: in vivo, human
Method: (§1) Ropivacaine hydrochloride 7.5 mg/ml solution for injection was used (Naropin®, Astra AB, Sweden). Ropivacaine was administered as a single dose intra-muscular tender point (TP) injection. Injection by means of one needle insertion per tender point was preceded by aspiration before infiltrating the study drug over the entire tender area. A standard disposable syringe with a 0.4 mm diameter needle was used. Injection rate was about 1 ml/30 sec. Injections were made at one occassion at a visit to the clinic. Follow-up data were obtained at a study end visit to the clinic 1 week after the injection. A case history information including the duration of the present orofacial muscle pain was collected. A clinical examination of the orofacial region including digital palpation of the temporomandibular joints and masticatory muscles. Ten patients (5 men and 5 women) whose age varied from 19 years to 69 years (mean 42.9 years of age) were included in this test. The duration of complaints ranged from 1 month up to 10 years (mean 26.5 months). All patients were subjected to unilateral injections of ropivacaine into tender points of the masseter muscle. Three patients received 1 ml, 5 patients received 2 ml, 1 patient received 3 ml and 1 patient received 4 ml of the study drug.

[4] = system: patients with orofacial muscle (myofascial) pain, masseter muscle tender points; experiment: VAS pain at rest (jaw at rest) after intramuscular tender point injection; assay type: in vivo, human
Method: as §1, with “injection.” for “injection. A case history information including the duration of the present orofacial muscle pain was collected. A clinical examination of the orofacial region including digital palpation of the temporomandibular joints and masticatory muscles.”, “drug. (ii) Pain at rest The non-functional pain (jaw at rest) was also assessed by the patient on the VAS scale. This parameter was rated before the rating of pain on maximal mouth opening.” for “drug.”

| SMILES | Effect on pain compared between bupivacaine, lignocaine and saline [1] | Pain at maximal jaw opening, 100 mm VAS, Follow-up, Max ([2]; 10 patients, 7.5 mg/ml single i.m. injection, follow-up 1 week, baseline max 95) [mm] | Pain at maximal jaw opening, 100 mm VAS, Follow-up, Mean ([2]; 10 patients, 7.5 mg/ml single i.m. injection, follow-up 1 week, baseline mean 59.3, S.D. 32.34) [mm] | Pain at maximal jaw opening, 100 mm VAS, Follow-up, Min ([2]; 10 patients, 7.5 mg/ml single i.m. injection, follow-up 1 week, baseline min 8) [mm] | Pain at maximal jaw opening, 100 mm VAS, Follow-up, Median ([2]; 10 patients, 7.5 mg/ml single i.m. tender point injection (1-4 ml), follow-up 1 week, baseline median 59.5) [mm] | VAS rated pain at maximal mouth opening, change as a result of the treatment ([2]; baseline vs follow-up 1 week, result in words) | Patients who became free or almost free of their muscular pain ([3]; FIG. 1, 10 patients treated) | Patients with pain at one occasion during the week prior to follow-up ([3]; of 10 patients) [patient] | Patients with pain several times a week or every day at follow-up ([3]; of 10 patients) [patients] | Patients with not a single episode with pain during the week prior to follow-up ([3]; of 10 patients, at baseline 2 had pain every day, 8 several times per week) [patients] | Pain at rest, 100 mm VAS, Follow-up, Max ([4]; 10 patients, 7.5 mg/ml single i.m. injection, follow-up 1 week, baseline max 89) [mm] | Pain at rest, 100 mm VAS, Follow-up, Mean ([4]; 10 patients, 7.5 mg/ml single i.m. injection, follow-up 1 week, baseline mean 33.3) [mm] | Pain at rest, 100 mm VAS, Follow-up, Median ([4]; 10 patients, 7.5 mg/ml single i.m. injection, follow-up 1 week, baseline median 19.5) [mm] | Pain at rest, 100 mm VAS, Follow-up, Min ([4]; 10 patients, 7.5 mg/ml single i.m. injection, follow-up 1 week, baseline min 3) [mm] | Pain at rest, change as the result of the treatment ([4]; baseline vs follow-up, result in words) |
| --- | --- | --- | --- | --- | --- | --- | --- | --- | --- | --- | --- | --- | --- | --- | --- |
| CCN(CC)CC(=O)Nc1c(C)cccc1C [lignocaine] | No significant difference | – | – | – | – | – | – | – | – | – | – | – | – | – | – |
| CCCN1CCCC[C@H]1C(=O)Nc1c(C)cccc1C [ropivacaine, (S)-(−)-i-propyl-2′,6′-pipecoloxylidide hydrochloride] | – | 75 | 27.3 | 0 | 6 | dramatic reduction | 6 out of the 10 | 1 | 3 | 6 | 16 | 3.7 | 3.5 | 0 | decreased significantly |
| CCCCN1CCCCC1C(=O)Nc1c(C)cccc1C (stereo not shown) [bupivacaine] | No significant difference | – | – | – | – | – | – | – | – | – | – | – | – | – | – |
